Data from publication PMC7827085 (Pharmaceutics, 2021).
Where two headings read alike, the source gives them in different places.

Assays:
ABCB1/MDR1/Pgp [1] = molecular target: T1, ABCB1/MDR1/Pgp (Homo sapiens, UniProt P08183); assay: in vitro; settings: human
Method: (§1) For the ABC transporter assays, we used both cell-based and membrane-based functional assays. […] The respective transport activities were assayed by measuring the cellular fluorescence of the respective transported substrates Phengreen (ABCG2) and Calcein (ABCB1 and ABCC1).
(§2) The cells were kept on ice until the flow cytometry measurements. All experiments were performed in triplicate and in at least three biological parallels.
(§3) The cells were kept on ice until the flow cytometry measurements. All experiments were performed in triplicate and in at least three biological parallels. […] The PhenGreen (PG) or Calcein signal was detected in the BL1 channel (emission filter: 530/30 nm). Analysis of the data was carried out by the Attune Nxt Cytometer Software v3.1.2 (Thermo Fischer Scientific, Waltham, MA, USA). The inhibition of transporter activity was calculated by comparing the fluorescence in the presence of the test compound to that in the presence of a specific inhibitor providing maximum inhibition. […] Half-maximum inhibition (IC50) values were calculated by using the Origin2019 software (9.6.5.169, OriginLab Corporation, Northampton, MA, USA). […] In these experiments, we measured Hoechst dye extrusion in HeLa cells stably expressing eGFP and the ABCG2 variants driven by the same promoter—the transgenic cells generated by the Sleeping Beauty transposon system. […] For details, see Zámbó et al.). […] The maximum inhibition was defined for each variant as the fluorescence difference of the samples incubated with and without Ko143, respectively. […] Data analysis was performed using the Attune Nxt Cytometer Software v3.1.2. Two samples per condition and three biological replicates were examined in each experiment.
ABCB1 is a high-affinity active efflux transporter of the viability dye Calcein-AM (CaAM). […] Here, we applied this widely used cellular assay (see https://www.solvobiotech.com/services/categories/dye-efflux-assays) to characterize drug interactions of the applied compounds in intact PLB-985 cells, expressing high levels of the ABCB1 protein.

ABCC1/MRP1 [2] = molecular target: T2, ABCC1/MRP1 (Homo sapiens, UniProt P33527)
ABCB1/MDR1/Pgp [3] = molecular target: T1, ABCB1/MDR1/Pgp; assay: in vitro; settings: Estimated Transporter Inhibition IC50, ABCB1 vesicular assay, ATP-dependent NMQ uptake, HEK-293/ABCB1 inverted membrane vesicles, '-' = no inhibition
ABCG2/BCRP [4] = molecular target: T3, ABCG2/BCRP (Homo sapiens, UniProt Q9UNQ0); assay: in vitro; settings: human
T3 sequence (Q9UNQ0 1-655): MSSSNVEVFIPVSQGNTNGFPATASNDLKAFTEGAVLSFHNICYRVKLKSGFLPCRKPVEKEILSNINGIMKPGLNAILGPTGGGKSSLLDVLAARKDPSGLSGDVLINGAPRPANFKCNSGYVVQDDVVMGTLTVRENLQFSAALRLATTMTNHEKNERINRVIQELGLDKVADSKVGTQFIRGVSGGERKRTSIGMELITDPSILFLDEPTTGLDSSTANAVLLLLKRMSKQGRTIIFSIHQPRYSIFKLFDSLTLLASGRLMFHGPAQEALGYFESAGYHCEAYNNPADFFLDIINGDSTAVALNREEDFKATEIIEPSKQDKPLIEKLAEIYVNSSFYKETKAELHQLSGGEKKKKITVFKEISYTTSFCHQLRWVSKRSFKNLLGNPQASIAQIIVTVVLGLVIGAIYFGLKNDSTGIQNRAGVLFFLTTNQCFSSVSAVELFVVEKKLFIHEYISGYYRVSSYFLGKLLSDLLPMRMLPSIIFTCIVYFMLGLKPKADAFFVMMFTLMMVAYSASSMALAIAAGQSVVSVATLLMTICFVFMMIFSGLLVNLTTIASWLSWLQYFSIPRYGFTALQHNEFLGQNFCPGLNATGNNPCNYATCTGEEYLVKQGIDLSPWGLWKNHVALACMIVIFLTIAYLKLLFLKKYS
Method: These were employed at 37 °C for 10 min (ABCG2), 1 min (ABCB1), or 3 min (ABCC1), with or without 4 mM Mg-ATP, in a 50 μL final volume. The known reference inhibitors of the transporters (1 µM Ko143 for ABCG2, 1 µM Valspodar for ABCB1, and 200 µM Benzbromarone for ABCC1) served as controls. Each test compound was dissolved in DMSO and a 1 µL volume was added to the samples. After incubation, the samples were filtered and washed, and the substrates in the vesicles were dissolved in 10% SDS and transferred onto another plate. After the addition of a stabilizer, the fluorescence was measured in plate readers (Victor X3 and Enspire Perkin-Elmer, Waltham, MA, USA), while the activity of the radiolabeled substrate was measured by liquid scintillation counting (Perkin Elmer MicroBeta2 liquid scintillation counter, Perkin Elmer, Waltham, MA, USA). ABC transporter-related vesicular transport was calculated by subtracting uptake measured in the presence of Mg-AMP from the values measured in the presence of Mg-ATP.
The effects of the test compounds on ABCG2 activity were also measured in a vesicular transport assay by using inverted membrane vesicles prepared from HEK-293 cells expressing high levels of the ABCG2 transporter.

ABCC1/MRP1 [5] = molecular target: T2, ABCC1/MRP1; assay: in vitro; settings: HL60/ABCC1 cells
Method: as §1, §2, §3
Therefore, we applied this assay to characterize the test drug interactions in intact HL60 cells expressing high levels of the ABCC1 protein.

ABCG2/BCRP [6] = molecular target: T3, ABCG2/BCRP; assay: in vitro; settings: human; remark: listed apart in the source
Method: as §1, §3
Here, we used both PhenGreen-SK diacetate and Hst dye for these measurements. The PhenGreen (PG) assay is a recently patented method applied for ensuring an efficient ABCG2 transport measurement, as the non-fluorescent PhenGreen diacetate (PG-DA) is actively extruded by ABCG2 and the cellular fluorescence is correlated with ABCG2 transport activity. Therefore, we applied this assay to characterize the test drug interactions in intact PLB-985 cells expressing high levels of the ABCG2 protein. […] ABCG2 inhibition by the test compounds was estimated by their relative (%) inhibition compared to full inhibition by Ko143.

[7] = in patients; lopinavir may reach, ritonavir may peak; ref FDA label 021226s018lbl / EMA Kaletra EPAR scientific discussion; cited from earlier work

T2 sequence (P33527 whole entry): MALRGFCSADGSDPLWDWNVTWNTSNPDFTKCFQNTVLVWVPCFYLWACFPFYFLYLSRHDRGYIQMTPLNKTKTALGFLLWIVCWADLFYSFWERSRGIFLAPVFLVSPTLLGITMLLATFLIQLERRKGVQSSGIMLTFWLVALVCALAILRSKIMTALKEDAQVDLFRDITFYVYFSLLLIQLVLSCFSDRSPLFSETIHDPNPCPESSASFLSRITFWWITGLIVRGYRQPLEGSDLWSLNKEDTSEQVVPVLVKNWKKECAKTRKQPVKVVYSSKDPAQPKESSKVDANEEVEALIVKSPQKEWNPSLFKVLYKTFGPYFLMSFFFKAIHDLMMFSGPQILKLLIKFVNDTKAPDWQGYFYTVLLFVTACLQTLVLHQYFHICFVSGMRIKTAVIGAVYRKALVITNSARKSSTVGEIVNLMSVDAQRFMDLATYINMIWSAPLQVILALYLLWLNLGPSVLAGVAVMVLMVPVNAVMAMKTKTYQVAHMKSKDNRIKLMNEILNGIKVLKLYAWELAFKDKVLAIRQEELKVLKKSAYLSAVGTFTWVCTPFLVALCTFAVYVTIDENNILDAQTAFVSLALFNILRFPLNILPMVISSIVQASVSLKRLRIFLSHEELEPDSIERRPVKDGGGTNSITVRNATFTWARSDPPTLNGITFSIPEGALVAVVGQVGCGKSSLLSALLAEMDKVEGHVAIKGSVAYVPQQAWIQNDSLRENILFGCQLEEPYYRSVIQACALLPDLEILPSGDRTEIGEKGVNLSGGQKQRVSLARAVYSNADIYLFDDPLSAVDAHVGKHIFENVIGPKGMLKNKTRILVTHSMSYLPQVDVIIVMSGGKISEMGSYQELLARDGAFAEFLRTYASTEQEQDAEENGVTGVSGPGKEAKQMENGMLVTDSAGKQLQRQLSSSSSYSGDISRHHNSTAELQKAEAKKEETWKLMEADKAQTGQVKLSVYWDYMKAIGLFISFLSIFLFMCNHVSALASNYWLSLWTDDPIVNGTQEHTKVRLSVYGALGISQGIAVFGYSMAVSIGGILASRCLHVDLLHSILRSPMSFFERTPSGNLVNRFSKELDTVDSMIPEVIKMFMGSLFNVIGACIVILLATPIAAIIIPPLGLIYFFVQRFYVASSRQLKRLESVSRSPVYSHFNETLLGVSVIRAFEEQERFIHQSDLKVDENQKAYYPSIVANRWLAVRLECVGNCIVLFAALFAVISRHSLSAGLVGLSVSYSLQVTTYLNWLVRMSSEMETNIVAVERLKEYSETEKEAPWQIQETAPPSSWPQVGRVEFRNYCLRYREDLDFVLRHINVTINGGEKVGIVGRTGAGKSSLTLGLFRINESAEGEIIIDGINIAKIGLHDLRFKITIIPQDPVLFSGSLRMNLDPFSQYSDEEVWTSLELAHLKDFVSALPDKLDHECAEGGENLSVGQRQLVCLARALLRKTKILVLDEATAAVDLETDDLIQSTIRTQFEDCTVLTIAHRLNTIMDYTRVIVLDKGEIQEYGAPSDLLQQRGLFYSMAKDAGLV
T1 sequence (P08183 whole entry): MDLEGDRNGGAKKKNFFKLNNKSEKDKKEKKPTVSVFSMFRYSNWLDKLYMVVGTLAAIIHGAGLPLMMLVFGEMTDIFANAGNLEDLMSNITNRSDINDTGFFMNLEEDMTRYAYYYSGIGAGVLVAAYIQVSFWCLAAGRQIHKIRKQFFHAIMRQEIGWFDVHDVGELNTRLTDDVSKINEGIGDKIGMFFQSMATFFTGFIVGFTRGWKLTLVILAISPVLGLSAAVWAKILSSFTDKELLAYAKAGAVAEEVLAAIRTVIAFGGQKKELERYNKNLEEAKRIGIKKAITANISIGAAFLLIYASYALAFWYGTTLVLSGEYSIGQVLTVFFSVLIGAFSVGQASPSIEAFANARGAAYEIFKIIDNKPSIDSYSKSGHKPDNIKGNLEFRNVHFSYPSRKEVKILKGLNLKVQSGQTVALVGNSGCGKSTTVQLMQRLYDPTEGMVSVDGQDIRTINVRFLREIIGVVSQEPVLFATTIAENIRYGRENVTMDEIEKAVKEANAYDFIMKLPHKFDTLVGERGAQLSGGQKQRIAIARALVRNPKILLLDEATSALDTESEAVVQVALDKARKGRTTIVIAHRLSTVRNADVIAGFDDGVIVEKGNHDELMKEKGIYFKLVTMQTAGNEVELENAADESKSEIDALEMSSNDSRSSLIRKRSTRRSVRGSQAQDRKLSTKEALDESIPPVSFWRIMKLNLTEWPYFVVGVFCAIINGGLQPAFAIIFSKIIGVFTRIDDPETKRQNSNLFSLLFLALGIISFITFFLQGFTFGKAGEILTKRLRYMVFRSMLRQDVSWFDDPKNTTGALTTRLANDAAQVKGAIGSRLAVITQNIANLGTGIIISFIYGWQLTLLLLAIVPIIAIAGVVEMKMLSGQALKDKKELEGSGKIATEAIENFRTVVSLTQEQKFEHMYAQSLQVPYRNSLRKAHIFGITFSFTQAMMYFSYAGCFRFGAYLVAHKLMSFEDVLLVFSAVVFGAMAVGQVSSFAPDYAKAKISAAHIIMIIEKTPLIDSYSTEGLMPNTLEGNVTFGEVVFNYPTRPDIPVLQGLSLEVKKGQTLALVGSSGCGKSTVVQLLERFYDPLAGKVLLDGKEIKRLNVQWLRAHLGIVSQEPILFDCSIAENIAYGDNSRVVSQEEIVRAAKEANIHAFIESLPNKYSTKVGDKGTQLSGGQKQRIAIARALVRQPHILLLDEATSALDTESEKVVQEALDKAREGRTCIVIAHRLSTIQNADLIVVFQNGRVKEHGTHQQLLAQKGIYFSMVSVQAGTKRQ

SMILES: CCN(CC)CCCC(C)Nc1ccnc2cc(Cl)ccc12 (centres unmarked) [chloroquine]
- IC50 at 40 min (ABCB1/MDR1/Pgp [1]): > 50 µM
- Effect on ABCC1 vesicular ETGB transport (in words) (ABCC1/MRP1 [2]): practically no effect
- IC50 (ABCB1/MDR1/Pgp [3]): > 50 µM
- IC50 at 10 min (ABCG2/BCRP [4]): > 50 µM
- Effect on ABCC1-dependent CaAM extrusion (in words) (ABCC1/MRP1 [5]): practically no effect
- IC50 at 40 min (ABCG2/BCRP [6]): > 50 µM

SMILES: CC(C)c1nc(CN(C)C(=O)N[C@H](C(=O)N[C@@H](Cc2ccccc2)C[C@H](O)[C@H](Cc2ccccc2)NC(=O)OCc2cncs2)C(C)C)cs1 [ritonavir]
- Effect on ABCC1 vesicular ETGB transport (in words) (ABCC1/MRP1 [2]; Sf9/ABCC1 membrane vesicles): practically no effect
- Plasma concentration in patients [7]: about 1 μM
